From PMC4113817, “New Hippolide Derivatives with Protein Tyrosine Phosphatase 1B Inhibitory Activity from the Marine Sponge Hippospongia lachne” (Marine Drugs, 2014)

Legend:
HCT-116 cell line = experiment: cytotoxicity against HCT-116 cancer cell line; format: cell-based; details: Homo sapiens
[1] = biological target: T1, recombinant PTP1B (catalytic domain) (Homo sapiens, UniProt P18031); experiment: PTP1B inhibitory assay (pNPP hydrolysis); format: biochemical; details: in vitro; pNPP substrate, 30 °C, pH 6.5
T1 construct: The enzymatic activities of the PTP1B catalytic domain were determined at 30 °C by monitoring the hydrolysis of pNPP
T1 sequence (P18031 3-277 limits assumed): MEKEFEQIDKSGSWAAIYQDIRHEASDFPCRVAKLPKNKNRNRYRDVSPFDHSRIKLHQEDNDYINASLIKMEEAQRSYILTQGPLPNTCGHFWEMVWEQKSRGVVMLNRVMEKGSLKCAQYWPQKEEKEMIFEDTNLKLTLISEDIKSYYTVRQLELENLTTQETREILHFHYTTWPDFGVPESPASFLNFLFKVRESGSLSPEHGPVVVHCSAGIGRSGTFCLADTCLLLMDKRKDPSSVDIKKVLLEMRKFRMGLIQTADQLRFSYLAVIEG
Procedure: The enzymatic activities of the PTP1B catalytic domain were determined at 30 °C by monitoring the hydrolysis of pNPP. Dephosphorylation of pNPP generates product pNP, which was monitored at an absorbance of 405 nm. In a typical 100 μL assay mixture containing 50 mmol/L 3-[N-morpholino] propanesulfonic acid (MOPs), pH 6.5, 2 mmol/L pNPP, and 30 nmol/L recombinant PTP1B, activities were continuously monitored and the initial rate of the hydrolysis was determined using the early linear region of the enzymatic reaction kinetic curve.

For `CC(C)=CCCC(C)=CCCC(C)=CCCC1=CCC2OC1NC=C2C=O` (stereo not drawn) [Compound 1], which IC50 (HCT-116 cell line) is on record?
Its IC50 is 11.6 µM.

And the IC50 [1]?
The IC50 was 5.2 µM.

For `CC(C)=CCCC(C)=CCCC(C)=CCCC1=CCC(O)C2(C(N)=O)CC(=O)OC12` (stereo not drawn) [Compound 2], which IC50 [1] is on record?
Its IC50 is greater than 50 µM.

Which IC50 [1] does the source give for `CC(C)=CCCC(C)=CCCC(C)=CCCC1=CCC(O)C2(C(=O)O)CC(=O)NC12` (stereo not drawn) [Compound 3] here?
The IC50 was 33 µM.

For `CC(C)=CCC/C(C)=C/CC/C(C)=C/CCc1ccc(O)c(CC(=O)O)c1` [Compound 4], which IC50 [1] is on record?
The IC50 was 14 µM.

Which IC50 [1] does the source give for `CC(C)=CCC/C(C)=C/CC/C(C)=C/CC\C(C=O)=C/C=C/C(C=O)=C/N` [Compound 5] here?
The IC50 was 8.7 µM.
